From ChEMBL document CHEMBL5356999, “Discovery and characterization of novel TRPML1 agonists” (Bioorg Med Chem Lett, 2024)

What was measured:
[1] = Effect on TRPML1 knockout HEK293 cells; type: functional, cell-based, Homo sapiens
[2] = Apparent permeability across apical to basolateral side in MDCK-MDR1 cells; type: ADME, cell-based, Canis lupus familiaris; settings: dog
[3] = Efflux ratio of apparent permeability in MDCK-MDR1 cells; type: ADME, cell-based, Canis lupus familiaris; settings: dog
[4] = Plasma protein binding in mouse; type: ADME, cell-free
[5] = Plasma protein binding in rat; type: ADME
[6] = Plasma protein binding in cynomolgus monkey; type: ADME, cell-free, Macaca fascicularis
[7] = Plasma protein binding in human; type: ADME
[8] = Protein binding in mouse brain; type: ADME, tissue-based
[9] = Stability in mouse hepatocytes assessed as half life; type: ADME, cell-based, Hepatocyte
[10] = Stability in rat hepatocytes assessed as half life; type: ADME, cell-based, Hepatocyte
[11] = Stability in cynomolgus monkey hepatocytes assessed as half life; type: ADME, cell-based, Macaca fascicularis, Hepatocyte
[12] = Cmax in mouse at 10 mg/kg, po or 1 mg/kg, iv; type: ADME, organism-based; set-up: dose 10 mg/kg, route po; settings: in vivo
[13] = Stability in human hepatocytes assessed as half life; type: ADME, cell-based, Hepatocyte
[14] = Stability in dog assessed as half life; type: ADME, cell-based, Canis lupus familiaris, Hepatocyte; settings: hepatocytes
[15] = Stability in mouse assessed as intrinsic clearance; type: ADME, cell-based, Hepatocyte; settings: hepatocytes
[16] = Stability in rat assessed as intrinsic clearance; type: ADME, cell-based, Hepatocyte; settings: hepatocytes
[17] = Stability in cynomolgus monkey assessed as intrinsic clearance; type: ADME, cell-based, Macaca fascicularis, Hepatocyte; settings: hepatocytes
[18] = Stability in human assessed as intrinsic clearance; type: ADME, cell-based, Hepatocyte; settings: hepatocytes
[19] = Stability in dog assessed as intrinsic clearance; type: ADME, cell-based, Canis lupus familiaris, Hepatocyte; settings: hepatocytes
[20] = Half life in mouse at 1 mg/kg, IV; type: ADME, organism-based; settings: in vivo
[21] = Unbound brain-to-plasma concentration ratio in mouse measured after 8 hrs; type: ADME, cell-free; settings: read-out: K(p,uu,brain)
[22] = Bioavailability in mouse at 10 mg/kg, po or 1 mg/kg, iv; type: ADME, organism-based; settings: in vivo
[23] = Clearance in mouse at 10 mg/kg, po or 1 mg/kg, iv; type: ADME, organism-based; settings: in vivo
[24] = Volume of distribution at steady state in mouse at 10 mg/kg, po or 1 mg/kg, iv; type: ADME, organism-based; settings: in vivo
[25] = Half life in mouse at 10 mg/kg, PO; type: ADME, organism-based; settings: in vivo

Compound	EC50 [1] [µM]	Papp A→B [2] [×10⁻⁶ cm/s]	efflux ratio [3]	fu [4] [%]	fu [5] [%]	fu [6] [%]	fu [7] [%]	fu,brain [8] [%]	half-life [9] [min]	half-life [10] [min]	half-life [11] [min]	Cmax [12] [ng/mL]	half-life [13] [min]	half-life [14] [min]	clearance [15] [mL/min/kg]	clearance [16] [mL/min/kg]	clearance [17] [mL/min/kg]	clearance [18] [mL/min/kg]	clearance [19] [mL/min/kg]	half-life [20] [min]	further results
CC(C)n1nnnc1[C@H](c1ccccc1F)N1CCN(c2cccc(Cl)c2)CC1	> 48.8	10.7	0.6	1	0.8	1	0.4	0.3	39.1	9.78	14.2	8.96	37	46.3	209	332	190	47.6	103	115	Kp uu at 8 h [21]: 0.55; bioavailability [22]: 3.45%; CL [23]: 109 mL/min/kg; Vdss [24]: 9.27 L/kg
CN(C)S(=O)(=O)c1ccc(S(=O)(=O)Nc2cccc(Cl)c2N2CCCCC2)cc1	1	–	–	–	–	–	–	–	–	–	–	–	–	–	–	–	–	–	–	–	–
CC(C)n1nnnc1[C@@H](c1ccccc1F)N1CCN(c2cccc(Cl)c2)CC1	> 48.8	9.9	0.4	0.5	0.4	0.7	0.6	0.3	48	4.97	39.1	36.2	16.9	57	170	652	69.1	104	83.7	131	half-life [25]: 104 min; Kp uu at 8 h [21]: 0.77; bioavailability [22]: 12.4%; CL [23]: 103 mL/min/kg; Vdss [24]: 9.01 L/kg

Second part, led by results:

EC50 [1] [µM]	Papp A→B [2] [×10⁻⁶ cm/s]	efflux ratio [3]	fu [4] [%]	fu [5] [%]	fu [6] [%]	fu [7] [%]	fu,brain [8] [%]	half-life [9] [min]	half-life [10] [min]	half-life [11] [min]	Cmax [12] [ng/mL]	half-life [13] [min]	half-life [14] [min]	clearance [15] [mL/min/kg]	clearance [16] [mL/min/kg]	clearance [17] [mL/min/kg]	clearance [18] [mL/min/kg]	clearance [19] [mL/min/kg]	half-life [20] [min]	Compound	further results
> 48.8	–	–	–	–	–	–	–	–	–	–	–	–	–	–	–	–	–	–	–	Clc1cccc(N2CCN(C3c4ccccc4CCCCn4nnnc43)CC2)c1 (stereo not drawn)	–
> 48.8	–	–	–	–	–	–	–	–	–	–	–	–	–	–	–	–	–	–	–	Clc1cccc(N2CCN(C3c4ccccc4CCCCCn4nnnc43)CC2)c1 (stereo not drawn)	–
> 48.8	–	–	–	–	–	–	–	–	–	–	–	–	–	–	–	–	–	–	–	Clc1cccc(N2CCN(C3c4ccccc4/C=C\CCCn4nnnc43)CC2)c1 (stereo not drawn)	–
